Reference: patent US20240150298A1, “ANTIBACTERIAL COMPOUNDS” (Blacksmith Medicines, Inc., priority 2021, published 2024)
≈ marks a conversion by molar mass, not a printed value. Read-outs that look alike come from different tables or passages of the source.

Key:
Experiment in all cases: Bacterial susceptibility testing, MIC by broth microdilution (CLSI)
Format in all cases: cell-based
[1] = system: E. coli ATCC25922; details: Escherichia coli
Description: (§1) Minimal inhibitory concentrations (MIC) were determined by the broth microdilution method in accordance with the Clinical and Laboratory Standards Institute (CLSI) guidelines. In brief, organism suspensions were adjusted to a final inoculum between 3×10^5 and 7×10^5 colony-forming units (CFU)/mL. Drug dilutions and inocula were made in sterile, cation adjusted Mueller-Hinton Broth (Beckton Dickinson). In wells, an inoculum volume of 100 μL was mixed to 2 μL of DMSO with 2-fold serial dilutions of drug. All inoculated microdilution trays were incubated in ambient air at 35° C. for 18-24 h. Following incubation, the lowest concentration of the drug that prevented visible growth (OD600 nm<0.05) was recorded as the MIC. Performance of the assay was monitored by the use of laboratory quality-control strains and compounds with defined MIC spectrum, in accordance with CLSI guidelines.

[2] = system: P. aeruginosa ATCC27835; details: Pseudomonas aeruginosa
Description: as §1

[3] = system: P. aeruginosa 209 PAO1; details: Pseudomonas aeruginosa
Description: as §1

[4] = system: K. pneumoniae ATCC13883; details: Klebsiella pneumoniae
Description: as §1

[5] = ATCC25922, broth microdilution, 35° C., 18-24 h, read-out: MIC E. coli ATCC25922
[6] = ATCC27835, broth microdilution, 35° C., 18-24 h, read-out: MIC P. aeruginosa ATCC27835
[7] = PAO1, broth microdilution, 35° C., 18-24 h, read-out: MIC P. aeruginosa 209 PAO1
[8] = ATCC13883, broth microdilution, 35° C., 18-24 h, read-out: MIC K. pneumoniae ATCC13883

SMILES | MIC [1, 5] [mg/L] | MIC [2, 6] [mg/L] | MIC [3, 7] [mg/L] | MIC [4, 8] [mg/L] | MIC ([1]; ATCC25922, read-out: MIC E. coli ATCC25922) [mg/L] | MIC ([2]; ATCC27835, read-out: MIC P. aeruginosa ATCC27835) [mg/L] | MIC ([3]; PAO1, read-out: MIC P. aeruginosa 209 PAO1) [mg/L] | MIC ([4]; ATCC13883, read-out: MIC K. pneumoniae ATCC13883) [mg/L]
CC(=O)O[C@@H]1C[C@H]1c1ccc(-c2ccc(/C=C/[C@@H](CO)n3ccnc3[C@H](C)O)cc2)cc1 [Compound 69, (1R,2S)-2-(4′-((S,E)-4-hydroxy-3-(2-((S)-1-hydroxyethyl)-1H-imidazol-1-yl)but-1-en-1-yl)-[1,1′-biphenyl]-4-yl)cyclopropyl acetate] | 0.25 | 4 | 2 | 0.5 |  |  |  | 
C[C@H](O)c1nccn1[C@@H](/C=C/c1ccc(-c2ccc(C3CC(NCc4ncon4)C3)cc2)cc1)CO (stereo partly drawn) [Compound 42, (S,E)-4-(4′-(3-(((1,2,4-oxadiazol-3-yl)methyl)amino)cyclobutyl)-[1,1′-biphenyl]-4-yl)-2-(2-((S)-1-hydroxyethyl)-1H-imidazol-1-yl)but-3-en-1-ol] |  | 4 (≈ 8.24 µM) | 4 (≈ 8.24 µM) | 0.5 (≈ 1.03 µM) |  |  |  | 
C[C@H](O)c1nccn1[C@@H](/C=C/c1ccc(-c2ccc(CO[C@H]3C[C@H]3N)cc2)cc1)CO (racemic) [Compound 16, (S,E)-4-(4′-(((cis)-2-aminocyclopropoxy)methyl)-[1,1′-biphenyl]-4-yl)-2-(2-((S)-1-hydroxyethyl)-1H-imidazol-1-yl)but-3-en-1-ol] | 2 (≈ 4.77 µM) | 4 (≈ 9.53 µM) | 2 (≈ 4.77 µM) | 8 (≈ 19.1 µM) |  |  |  | 
C[C@H](O)c1nccn1[C@@H](/C=C/c1ccc(-c2ccc(OC[C@@H](N)CO)cc2)cc1)CO (single isomer, unassigned) [Compound 10] | 8 (≈ 18.9 µM) | 2 (≈ 4.72 µM) | 1 (≈ 2.36 µM) | 16 (≈ 37.8 µM) |  |  |  | 
C[C@H](O)c1nccn1[C@@H](/C=C/c1ccc(-c2ccc(O[C@H]3C[C@@H]3N)cc2)cc1)CO (racemic) [Compound 13, (S,E)-4-(4′-((trans)-2-aminocyclopropoxy)-[1,1′-biphenyl]-4-yl)-2-(2-((S)-1-hydroxyethyl)-1H-imidazol-1-yl)but-3-en-1-ol] | 4 (≈ 9.86 µM) | 16 (≈ 39.5 µM) | 2 (≈ 4.93 µM) | 4 (≈ 9.86 µM) |  |  |  | 
C[C@H](O)c1nccn1[C@@H](/C=C/c1ccc(-c2ccc([C@H]3C[C@H](NC(=O)CS(C)(=O)=O)C3)cc2)cc1)CO [Compound 63, N-((1S,3r)-3-(4′-((S,E)-4-hydroxy-3-(2-((S)-1-hydroxyethyl)-1H-imidazol-1-yl)but-1-en-1-yl)-[1,1′-biphenyl]-4-yl)cyclobutyl)-2-(methylsulfonyl)acetamide] |  |  |  |  | 2 (≈ 3.82 µM) | 4 (≈ 7.64 µM) | 2 (≈ 3.82 µM) | 4 (≈ 7.64 µM)
C[C@H](O)c1nccn1[C@@H](/C=C/c1ccc(-c2ccc(C3CC(C(=O)NCC(O)CO)C3)cc2)cc1)CO (stereo partly drawn) [Compound 52, N-(2,3-dihydroxypropyl)-3-(4′-((S,E)-4-hydroxy-3-(2-((S)-1-hydroxyethyl)-1H-imidazol-1-yl)but-1-en-1-yl)-[1,1′-biphenyl]-4-yl)cyclobutane-1-carboxamide] | 4 (≈ 7.91 µM) | 4 (≈ 7.91 µM) | 4 (≈ 7.91 µM) | 16 (≈ 31.6 µM) |  |  |  | 
C[C@H](O)c1nccn1[C@@H](/C=C/c1ccc(-c2ccc(OCCC(O)CO)cc2)cc1)CO (mixture of isomers) [Compound 43, 4-((4′-((S,E)-4-hydroxy-3-(2-((S)-1-hydroxyethyl)-1H-imidazol-1-yl)but-1-en-1-yl)-[1,1′-biphenyl]-4-yl)oxy)butane-1,2-diol] |  | 2 (≈ 4.56 µM) | 2 (≈ 4.56 µM) | 2 (≈ 4.56 µM) |  |  |  | 
C[C@H](O)c1nccn1[C@@H](/C=C/c1ccc(-c2ccc(O[C@@H]3CCC[C@H]3O)cc2)cc1)CO [Compound 73, (1R,2R)-2-((4′-((S,E)-4-hydroxy-3-(2-((S)-1-hydroxyethyl)-1H-imidazol-1-yl)but-1-en-1-yl)-[1,1′-biphenyl]-4-yl)oxy)cyclopentan-1-ol] | 0.5 (≈ 1.15 µM) | 4 (≈ 9.21 µM) | 2 (≈ 4.6 µM) | 1 (≈ 2.3 µM) |  |  |  | 
C[C@H](O)c1nccn1[C@@H](/C=C/c1ccc(-c2ccc(C3CC(NC(C#N)CO)C3)cc2)cc1)CO (stereo partly drawn) [Compound 41, 3-hydroxy-2-((3-(4′-((S,E)-4-hydroxy-3-(2-((S)-1-hydroxyethyl)-1H-imidazol-1-yl)but-1-en-1-yl)-[1,1′-biphenyl]-4-yl)cyclobutyl)amino)propanenitrile] |  | 2 (≈ 4.23 µM) | 2 (≈ 4.23 µM) | 2 (≈ 4.23 µM) |  |  |  | 
COC[C@H](N)COc1ccc(-c2ccc(/C=C/[C@@H](CO)n3ccnc3[C@H](C)O)cc2)cc1 [Compound 31, (2S,E)-4-(4′-(2-amino-3-methoxypropoxy)-[1,1′-biphenyl]-4-yl)-2-(2-((S)-1-hydroxyethyl)-1H-imidazol-1-yl)but-3-en-1-ol] | 2 (≈ 4.57 µM) | 4 (≈ 9.14 µM) | 1 (≈ 2.29 µM) | 4 (≈ 9.14 µM) |  |  |  | 
C[C@H](O)c1nccn1C/C=C/c1ccc(-c2ccc(OCCN3CCN(CCN)CC3)cc2)cc1 [Compound 5, (S,E)-1-(1-(3-(4′-(2-(4-(2-aminoethyl)piperazin-1-yl)ethoxy)-[1,1′-biphenyl]-4-yl)allyl)-1H-imidazol-2-yl)ethan-1-ol] | 2 (≈ 4.2 µM) | 4 (≈ 8.41 µM) | 4 (≈ 8.41 µM) | 4 (≈ 8.41 µM) |  |  |  | 
C[C@H](O)c1nccn1[C@@H](/C=C/c1ccc(-c2ccc([C@@H]3C[C@H]3OCCO)cc2)cc1)CO [Compound 71, (S,E)-4-(4′-((1S,2R)-2-(2-hydroxyethoxy)cyclopropyl)-[1,1′-biphenyl]-4-yl)-2-(2-((S)-1-hydroxyethyl)-1H-imidazol-1-yl)but-3-en-1-ol] | 0.5 (≈ 1.15 µM) | 4 (≈ 9.21 µM) | 2 (≈ 4.6 µM) | 0.5 (≈ 1.15 µM) |  |  |  | 
C[C@H](O)c1nccn1[C@@H](/C=C/c1ccc(-c2ccc(C3CC(NCC#N)C3)cc2F)cc1)CO (stereo partly drawn) [Compound 75, 2-((3-(2-fluoro-4′-((S,E)-4-hydroxy-3-(2-((S)-1-hydroxyethyl)-1H-imidazol-1-yl)but-1-en-1-yl)-[1,1′-biphenyl]-4-yl)cyclobutyl)amino)acetonitrile] | 0.25 (≈ 0.543 µM) | 4 (≈ 8.69 µM) | 2 (≈ 4.34 µM) | 0.5 (≈ 1.09 µM) |  |  |  | 
C[C@H](O)c1nccn1[C@@H](/C=C/c1ccc(-c2ccc(OC[C@H](O)CO)cc2)cc1)CO [Compound 23, (R)-3-((4′-((S,E)-4-hydroxy-3-(2-((S)-1-hydroxyethyl)-1H-imidazol-1-yl)but-1-en-1-yl)-[1,1′-biphenyl]-4-yl)oxy)propane-1,2-diol] | 8 (≈ 18.8 µM) | 4 (≈ 9.42 µM) | 4 (≈ 9.42 µM) | 16 (≈ 37.7 µM) |  |  |  | 
C[C@H](O)c1nccn1[C@@H](/C=C/c1ccc(-c2ccc(OC[C@H](N)CO)cc2)cc1)CO (single isomer, unassigned) [Compound 9] |  | 2 (≈ 4.72 µM) | 2 (≈ 4.72 µM) |  |  |  |  | 
C[C@H](O)c1nccn1[C@@H](/C=C/c1ccc(-c2ccc(C3CC(CNCC(O)CO)C3)cc2)cc1)CO (stereo partly drawn) [Compound 60, 3-(((3-(4′-((S,E)-4-hydroxy-3-(2-((S)-1-hydroxyethyl)-1H-imidazol-1-yl)but-1-en-1-yl)-[1,1′-biphenyl]-4-yl)cyclobutyl)methyl)amino) propane-1,2-diol] | 8 (≈ 16.3 µM) | 4 (≈ 8.14 µM) | 4 (≈ 8.14 µM) | 16 (≈ 32.5 µM) |  |  |  | 
C[C@H](O)c1nccn1[C@@H](/C=C/c1ccc(-c2ccc(O[C@@H]3C[C@H]3N)cc2)cc1)CO (single isomer, unassigned) [Compound 15] | 0.5 (≈ 1.23 µM) | 2 (≈ 4.93 µM) | 0.5 (≈ 1.23 µM) |  |  |  |  | 
C[C@H](O)c1nccn1[C@@H](/C=C/c1ccc(-c2ccc(C3CC(NCc4cocn4)C3)cc2)cc1)CO (stereo partly drawn) [Compound 40, (S,E)-2-(2-((S)-1-hydroxyethyl)-1H-imidazol-1-yl)-4-(4′-(3-((oxazol-4-ylmethyl)amino)cyclobutyl)-[1,1′-biphenyl]-4-yl)but-3-en-1-ol] |  | 2 (≈ 4.13 µM) | 2 (≈ 4.13 µM) | 1 (≈ 2.06 µM) |  |  |  | 
C[C@H](O)c1nccn1[C@@H](/C=C/c1ccc(-c2ccc(OC3CN(CCO)C3)cc2)cc1)CO [Compound 20, (S,E)-2-(2-((S)-1-hydroxyethyl)-1H-imidazol-1-yl)-4-(4′-((1-(2-hydroxyethyl)azetidin-3-yl)oxy)-[1,1′-biphenyl]-4-yl)but-3-en-1-ol] | 4 (≈ 8.9 µM) | 2 (≈ 4.45 µM) | 2 (≈ 4.45 µM) |  |  |  |  | 
